For orientation: melting point means the temperature, or range, at which the solid turns liquid.

Take `Cc1cc(N2CC=C(CC(N)=O)CC2)c2cccc(-c3ccc(Cl)cc3Cl)c2n1` [compound 1-05, 2-{1-[8-(2,4-dichlorophenyl)-2-methylquinolin-4-yl]-1,2,3,6-tetrahydropyridin-4-yl}-acetamide]: the melting point is 160 to 162 °C.

The record behind these values is patent US7160900B2, “Tetrahydropyridino or piperidino heterocyclic derivatives” (Taisho Pharmaceutical Co., Ltd., priority 2000, dated 2007).
